Measured values from patent US20120237566A1, “INHIBITING STOMACH-ACID RELEASE, REDUCING INFLAMMATION AND PREVENTING AND TREATING CANCER: COMPOSITIONS AND METHODS OF USE” (Venture Isles, LLC, priority 2011, published 2012).
“Also recorded” adds a separate entry of the source. Like-named read-outs stand apart in the source and are kept apart here.

What was measured:
high-affinity K site = high-affinity K site (Homo sapiens, UniProt P20648); details: cited from earlier work
[1] = tested on: chambered bull frog gastric mucosa; details: cited from earlier work
[2] = tested on: gastric microsomal K-pNPPase; assay: K-pNPPase activity of gastric microsomes; assay type: biochemical
Na—K-ATPase = details: cited from earlier work
H, K-ATPase = H, K-ATPase (Homo sapiens, UniProt P20648); details: cited from earlier work
Chain of H, K-ATPase (P20648 whole entry): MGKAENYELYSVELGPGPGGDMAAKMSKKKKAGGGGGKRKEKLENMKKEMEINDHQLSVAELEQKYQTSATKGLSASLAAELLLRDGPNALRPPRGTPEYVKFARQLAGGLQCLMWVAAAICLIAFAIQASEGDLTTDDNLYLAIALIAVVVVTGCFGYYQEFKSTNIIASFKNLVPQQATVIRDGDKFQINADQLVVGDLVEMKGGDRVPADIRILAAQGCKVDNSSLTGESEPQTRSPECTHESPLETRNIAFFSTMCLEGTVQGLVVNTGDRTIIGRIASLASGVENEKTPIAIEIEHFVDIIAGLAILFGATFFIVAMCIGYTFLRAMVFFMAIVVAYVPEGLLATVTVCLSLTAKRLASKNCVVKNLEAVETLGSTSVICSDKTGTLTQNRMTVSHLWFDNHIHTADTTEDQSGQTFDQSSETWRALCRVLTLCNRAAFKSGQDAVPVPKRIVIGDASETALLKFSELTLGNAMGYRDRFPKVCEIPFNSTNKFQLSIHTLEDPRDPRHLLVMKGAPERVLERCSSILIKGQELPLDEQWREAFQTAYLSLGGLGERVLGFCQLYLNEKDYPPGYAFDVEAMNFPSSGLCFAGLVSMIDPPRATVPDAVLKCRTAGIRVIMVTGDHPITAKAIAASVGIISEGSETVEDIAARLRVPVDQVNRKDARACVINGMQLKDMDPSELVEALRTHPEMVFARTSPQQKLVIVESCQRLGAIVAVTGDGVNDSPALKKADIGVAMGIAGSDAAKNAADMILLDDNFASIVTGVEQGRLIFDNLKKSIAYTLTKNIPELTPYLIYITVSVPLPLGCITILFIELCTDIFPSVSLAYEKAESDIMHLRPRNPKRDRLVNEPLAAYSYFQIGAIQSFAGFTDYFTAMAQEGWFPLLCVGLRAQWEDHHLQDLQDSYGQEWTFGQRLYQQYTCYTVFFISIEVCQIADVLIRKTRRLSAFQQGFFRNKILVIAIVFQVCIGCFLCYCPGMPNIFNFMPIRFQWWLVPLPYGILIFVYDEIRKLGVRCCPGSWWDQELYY
Chain of H, K-ATPase (P51164 whole entry partner): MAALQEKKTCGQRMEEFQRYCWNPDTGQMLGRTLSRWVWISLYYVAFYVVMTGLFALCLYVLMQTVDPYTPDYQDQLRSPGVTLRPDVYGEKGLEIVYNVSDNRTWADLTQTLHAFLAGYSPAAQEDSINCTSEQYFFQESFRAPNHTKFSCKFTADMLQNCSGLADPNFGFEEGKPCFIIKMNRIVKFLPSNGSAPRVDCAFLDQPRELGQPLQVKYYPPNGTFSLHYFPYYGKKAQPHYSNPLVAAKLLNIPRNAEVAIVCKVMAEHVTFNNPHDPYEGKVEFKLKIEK

mitosis = details: cited from earlier work
neutrophil chemotaxis = details: in vitro; cited from earlier work
neutrophil elastase = molecular target: T1, neutrophil elastase (Homo sapiens, UniProt P08246); details: cited from earlier work
T1 sequence (P08246 30-267): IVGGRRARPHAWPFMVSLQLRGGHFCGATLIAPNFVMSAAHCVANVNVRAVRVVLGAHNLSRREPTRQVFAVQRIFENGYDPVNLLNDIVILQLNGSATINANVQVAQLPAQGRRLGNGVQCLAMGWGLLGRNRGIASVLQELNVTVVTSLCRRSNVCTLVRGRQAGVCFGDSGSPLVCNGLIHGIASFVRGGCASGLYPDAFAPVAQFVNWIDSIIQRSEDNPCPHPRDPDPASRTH

[3] = tested on: neutrophil-mediated angiogenesis; details: oral; in vivo; cited from earlier work
activated neutrophils = details: micromolar EGCG; cited from earlier work
gastric H, K-ATPase [4] = assay: H, K-ATPase activity of isolated gastric microsomal vesicles; assay type: biochemical
From the text: (§1) Heavy-metal ions generally comprise Ba, Ca, and Zn and show synergistic inhibition when used in combination with thiocyanate and isothiocyanate. Zinc (Zn) inhibits acid secretion by a mechanism quite different than Barium and Calcium.

[5] = tested on: chambered bull frog gastric mucosa; assay: acid secretion by chambered bull frog gastric mucosa in vitro; assay type: cell-based
From the text: The method further comprises Step 2 that includes testing to determine if a candidate molecule inhibits the H, K-ATPase activity (inhibits the pump turnover), then test in an appropriate animal model(s) for the antisecretary activity and select the best candidates for clinical trial, as in Step 6.
as §1
However, SCN and ZN include different modes of operation.

[6] = tested on: AP-1 mediated transcription; details: in vitro; cited from earlier work
lipoxygenase = details: cited from earlier work
[7] = tested on: inducible nitric oxide synthase (iNOS); details: activated macrophages; cited from earlier work
[8] = molecular target: highly purified H, K-ATPase (Homo sapiens, UniProt P20648); details: cited from earlier work
Chain of highly purified H, K-ATPase (P20648 whole entry): as the sequence (P20648 whole entry) above
Chain of highly purified H, K-ATPase (P51164 whole entry partner): as the sequence (P51164 whole entry partner) above

gastric H, K-ATPase [9] = details: cited from earlier work

Chain of high-affinity K site (P20648 whole entry): as the sequence (P20648 whole entry) above
Chain of high-affinity K site (P51164 whole entry partner): as the sequence (P51164 whole entry partner) above

2-[3,4]-dichlorophenylamino quinolizium bromide [nolinium bromide]
interaction with the high-affinity K site (high-affinity K site): interacts competitively

[Ba+2] [Barium]
reversal of inhibition of acid secretion by higher concentration of K [1]: competitively reverses | acid secretion ([1]; higher concentration (above 1 mM)): blocks the acid secretion | acid secretion ([1]; less than 1 mM concentration): slight stimulation | K-pNPPase activity, antagonism with K [2]: parallel Ba/K antagonism

Clc1ccccc1C(c1ccccc1)(c1ccccc1)n1ccnc1 [CLT, clotrimazole]
inhibition of Na—K-ATPase (Na—K-ATPase): potent inhibitors | inhibition of H, K-ATPase (H, K-ATPase): potent inhibitors

[Ca+2] [Calcium]
response of K-pNPPase inhibition to higher K [2]: nonresponsive to higher K | K-pNPPase activity ([2]; concentrations comparable to Ba): strong inhibition

N#CSc1ccc(Cl)cc1Cl [DCPT, 2,4-dichlorophenyl thiocyanate]
anti-proliferative / antimitotic activity (mitosis): anti-proliferative property; also recorded: antimitotic

O=C(O[C@@H]1Cc2c(O)cc(O)cc2O[C@@H]1c1cc(O)c(O)c(O)c1)c1cc(O)c(O)c(O)c1 [EGCG, (−)epigallocatechin-3-gallate]
chemokine-induced neutrophil chemotaxis (neutrophil chemotaxis): dramatically inhibits | neutrophil elastase inhibition (neutrophil elastase): strongly inhibits | neutrophil-mediated angiogenesis [3]: block | apoptosis of activated neutrophils (activated neutrophils): inhibits | reactive oxygen species activity (activated neutrophils): represses

Cc1nc2c(OCc3ccccc3)cccn2c1CC#N [SCH 28080]
interaction with the high-affinity K site (high-affinity K site): interacts competitively

[Zn+2] [Zn, Zinc]
activity of the isolated H, K-ATPase (gastric H, K-ATPase [4]): strongly inhibited | H, K-ATPase activity (gastric H, K-ATPase [4]; 2 μM): abolished | H, K-ATPase activity (gastric H, K-ATPase [4]; 2 μM, listed as Zinc): abolishes | sensitivity of H, K-ATPase activity relative to pNPPase activity (gastric H, K-ATPase [4]; inhibition by Zn): ten times more sensitive | activity of the isolated pNPPase [2]: strongly inhibited | K-pNPPase activity ([2]; 20 μM): abolishes | inhibition of gastric-acid secretion [5]: potent inhibitors | reversal of inhibition of acid secretion by beta-mercaptoehanol (βME) in the secretary solution [5]: could be reversed | reversal of inhibition of gastric acid secretion by raising K-salt in the bathing medium [5]: totally ineffective | restoration of acid secretion after Zn inhibition ([5]; 1 mM beta-mercapto-ehanol (βME)): promptly restored | acid secretion ([5]; at a concentration of 60 added to the secretary solution, within 15 min): reduces the acid secretion to near zero

COc1cc(C=CC(=O)CC(=O)C=Cc2ccc(O)c(OC)c2)ccc1O [curcumin, 1,7-bis(4-hydroxy-3-methoxyphenyl)-1,6-heptadiene-3,5-dione]
AP-1 mediated transcription related to cytokine regulation [6]: inhibits | lipoxygenase inhibition (lipoxygenase): inhibits | inducible nitric oxide synthase (iNOS) [7]: suppresses

N#C[S-].[Na+] [thiocyanate, Sodium thiocyanate]
gastric H transport [1]: potent inhibitor | H, K-ATPase activity (gastric H, K-ATPase [4]; 10 mM): totally ineffective | binding to purified H, K-ATPase [8]: specific binding | displacement of bound SCN by K [8]: could be displaced by K | binding to purified H, K-ATPase ([8]; listed as SCN): binding to a specific site | reversal of K-pNPPase inhibition by high K [2]: reversed by high K | K-pNPPase activity ([2]; 10 mM): abolished | H, K-ATPase mediated hydrolysis of ATP (ATPase activity) (gastric H, K-ATPase [9]): does not inhibit | inhibition of gastric-acid secretion [5]: potent inhibitors | reversal of inhibition of gastric acid secretion by raising K-salt in the bathing medium [5]: can be reversed
